Tested on: 935938-334-R-J1-PDC complex spheroid viability
Experiment: Anticancer human tumor 935938-334-R-J1-PDC patient-derived small intestine adenocarcinoma cell line growth inhibition [POLQ]
Details: for IC50: curve of first compound; for viability, T/C: stronger effect = lower value
How it was run: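 Complex spheroid viability model combining PDC tumour cells with endothelial (HUVEC) and MSC stromal cells. Novobiocin, ART-558 or RP6685 were tested singly and in combination with standard and investigational anticancer drugs. Each was titrated in half-log steps from near clinical Cmax, or from 10 microM where Cmax was unknown.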
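Note: spheroids exposed to drugs for seven days before viability read.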
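Throughout, for viability, T/C: 100% = DMSO vehicle control wells.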

CCCS(=O)(=O)Nc1ccc(F)c(C(=O)c2c[nH]c3ncc(-c4ccc(Cl)cc4)cc23)c1F + Nc1ccc(C#CCN(C(=O)Cc2ncc(C(F)(F)F)cc2C(F)(F)F)c2ccc(F)cc2)nn1
IC50 (second compound 0.0316 µM): 9.23 µM | IC50 (second compound 0.1 µM): 9.61 µM | IC50 (second compound 0.316 µM): > 10 µM | IC50 (second compound 1 µM): > 10 µM | IC50 (second compound 3.16 µM): 9.37 µM | IC50 (second compound 10 µM): 9.98 µM | viability, T/C (second compound 0.0316 µM, first compound 0.0316 µM): 114% | viability, T/C (second compound 0.0316 µM, first compound 0.1 µM): 112% | viability, T/C (second compound 0.0316 µM, first compound 0.316 µM): 117% | viability, T/C (second compound 0.0316 µM, first compound 1 µM): 135% | viability, T/C (second compound 0.0316 µM, first compound 3.16 µM): 113% | viability, T/C (second compound 0.0316 µM, first compound 10 µM): 45% | viability, T/C (second compound 0.1 µM, first compound 0.0316 µM): 126% | viability, T/C (second compound 0.1 µM, first compound 0.1 µM): 138% | viability, T/C (second compound 0.1 µM, first compound 0.316 µM): 109% | viability, T/C (second compound 0.1 µM, first compound 1 µM): 140% | viability, T/C (second compound 0.1 µM, first compound 3.16 µM): 131% | viability, T/C (second compound 0.1 µM, first compound 10 µM): 47.3% | viability, T/C (second compound 0.316 µM, first compound 0.0316 µM): 118% | viability, T/C (second compound 0.316 µM, first compound 0.1 µM): 121% | viability, T/C (second compound 0.316 µM, first compound 0.316 µM): 90.9% | viability, T/C (second compound 0.316 µM, first compound 1 µM): 165% | viability, T/C (second compound 0.316 µM, first compound 3.16 µM): 120% | viability, T/C (second compound 0.316 µM, first compound 10 µM): 50.3% | viability, T/C (second compound 1 µM, first compound 0.0316 µM): 103% | viability, T/C (second compound 1 µM, first compound 0.1 µM): 97.4% | viability, T/C (second compound 1 µM, first compound 0.316 µM): 95.1% | viability, T/C (second compound 1 µM, first compound 1 µM): 112% | viability, T/C (second compound 1 µM, first compound 3.16 µM): 129% | viability, T/C (second compound 1 µM, first compound 10 µM): 63.2% | viability, T/C (second compound 3.16 µM, first compound 0.0316 µM): 110% | viability, T/C (second compound 3.16 µM, first compound 0.1 µM): 121% | viability, T/C (second compound 3.16 µM, first compound 0.316 µM): 140% | viability, T/C (second compound 3.16 µM, first compound 1 µM): 158% | viability, T/C (second compound 3.16 µM, first compound 3.16 µM): 121% | viability, T/C (second compound 3.16 µM, first compound 10 µM): 45.6% | viability, T/C (second compound 10 µM, first compound 0.0316 µM): 104% | viability, T/C (second compound 10 µM, first compound 0.1 µM): 125% | viability, T/C (second compound 10 µM, first compound 0.316 µM): 145% | viability, T/C (second compound 10 µM, first compound 1 µM): 174% | viability, T/C (second compound 10 µM, first compound 3.16 µM): 151% | viability, T/C (second compound 10 µM, first compound 10 µM): 50%

From PubChem BioAssay AID1963829 (Molecular Pharmacology Branch, DTP, NCI, 2024)
